In ChEMBL document CHEMBL4038320 (J Med Chem, 2017):

Legend:
[1] = target: Rho-associated protein kinase 2 (Homo sapiens, UniProt O75116); assay: Inhibition of recombinant human N-terminal GST-tagged ROCK2 catalytic domain (1 to 553 residues) expressed in baculovirus expression system using STK 2-biotin as substrate measured after 60 mins by HTRF/TR-FRET assay
CYP3A4 = CYP3A4 (Homo sapiens, UniProt P08684); assay: Inhibition of CYP3A4 (unknown origin) at 10 uM; type: ADME
[2] = target: Protein kinase C alpha type (Homo sapiens, UniProt P17252); assay: Inhibition of human PKCalpha active using MBP as substrate after 60 mins in presence of [gamma-32]ATP by scintillation counting

CYP3A4, sequence (P08684 whole entry): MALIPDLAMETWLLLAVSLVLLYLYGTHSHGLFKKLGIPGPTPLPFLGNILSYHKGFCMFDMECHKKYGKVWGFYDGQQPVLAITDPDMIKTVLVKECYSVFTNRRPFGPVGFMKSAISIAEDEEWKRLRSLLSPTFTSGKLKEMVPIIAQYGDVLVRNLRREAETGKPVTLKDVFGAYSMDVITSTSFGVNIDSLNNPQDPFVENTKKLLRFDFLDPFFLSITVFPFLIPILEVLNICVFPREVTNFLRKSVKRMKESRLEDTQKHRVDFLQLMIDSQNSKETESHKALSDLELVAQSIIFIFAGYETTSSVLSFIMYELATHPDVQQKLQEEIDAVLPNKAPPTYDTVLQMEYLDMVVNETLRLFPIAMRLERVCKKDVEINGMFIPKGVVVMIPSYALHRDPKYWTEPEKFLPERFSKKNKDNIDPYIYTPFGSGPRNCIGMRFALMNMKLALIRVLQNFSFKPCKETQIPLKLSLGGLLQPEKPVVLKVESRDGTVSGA
Rho-associated protein kinase 2, sequence (O75116 whole entry, the tested form may be a part): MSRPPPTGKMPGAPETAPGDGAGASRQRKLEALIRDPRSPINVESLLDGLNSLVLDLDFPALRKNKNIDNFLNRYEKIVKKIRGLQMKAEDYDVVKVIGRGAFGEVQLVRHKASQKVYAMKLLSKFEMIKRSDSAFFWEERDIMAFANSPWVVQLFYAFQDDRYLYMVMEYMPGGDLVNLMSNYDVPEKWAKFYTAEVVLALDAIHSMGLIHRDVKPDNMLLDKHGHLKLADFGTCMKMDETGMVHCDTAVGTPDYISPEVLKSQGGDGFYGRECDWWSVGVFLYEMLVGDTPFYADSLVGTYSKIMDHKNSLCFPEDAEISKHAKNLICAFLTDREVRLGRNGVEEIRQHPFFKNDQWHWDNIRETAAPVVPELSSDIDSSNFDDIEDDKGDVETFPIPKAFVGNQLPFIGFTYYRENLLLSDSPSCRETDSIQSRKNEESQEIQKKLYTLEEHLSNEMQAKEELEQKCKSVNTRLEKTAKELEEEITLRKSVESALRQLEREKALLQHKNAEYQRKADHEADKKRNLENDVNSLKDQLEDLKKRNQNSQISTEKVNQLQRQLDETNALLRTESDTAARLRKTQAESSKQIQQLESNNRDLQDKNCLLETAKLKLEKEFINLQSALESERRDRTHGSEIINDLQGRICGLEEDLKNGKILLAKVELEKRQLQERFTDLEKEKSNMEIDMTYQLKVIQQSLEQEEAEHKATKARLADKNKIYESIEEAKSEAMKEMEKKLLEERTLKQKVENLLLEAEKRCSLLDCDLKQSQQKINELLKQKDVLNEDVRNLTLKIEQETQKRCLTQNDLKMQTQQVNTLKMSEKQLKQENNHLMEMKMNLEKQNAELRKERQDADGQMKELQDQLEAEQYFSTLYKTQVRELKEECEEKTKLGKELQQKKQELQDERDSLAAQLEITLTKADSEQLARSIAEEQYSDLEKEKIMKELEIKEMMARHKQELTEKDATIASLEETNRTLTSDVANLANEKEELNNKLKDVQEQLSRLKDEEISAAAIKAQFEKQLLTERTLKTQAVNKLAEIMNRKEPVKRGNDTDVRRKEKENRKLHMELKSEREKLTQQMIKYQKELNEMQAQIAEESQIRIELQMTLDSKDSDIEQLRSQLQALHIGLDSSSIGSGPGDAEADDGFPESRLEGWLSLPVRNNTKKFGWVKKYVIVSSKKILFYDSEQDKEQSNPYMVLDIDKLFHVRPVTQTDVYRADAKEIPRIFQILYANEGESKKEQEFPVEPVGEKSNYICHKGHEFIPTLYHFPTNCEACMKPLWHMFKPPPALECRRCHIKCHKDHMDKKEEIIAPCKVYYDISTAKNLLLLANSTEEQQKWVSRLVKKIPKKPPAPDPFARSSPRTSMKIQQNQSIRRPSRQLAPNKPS

Compound	IC50 [1]	inhibition at 10 µM (CYP3A4)	IC50 [2]
Clc1cccc(OCc2n[nH]c(-c3ccncc3)n2)c1	1700 nM	86%	
O=C(CNc1ccccc1)N/N=C/c1ccncc1	640 nM		
O=C(CNc1cccc(Cl)c1)N/N=C/c1ccncc1	300 nM		
COc1cccc(NCC(=O)N/N=C/c2ccncc2)c1	62 nM		
COc1ccccc1NCC(=O)N/N=C/c1ccncc1	7400 nM		
O=C(CNc1ccc(Cl)cc1)N/N=C/c1ccncc1	540 nM		
Cn1c(CNc2cccc(C(=O)NCc3c(F)cccc3F)c2)nnc1-c1ccnc(NCCc2ccccc2)c1	> 10000 nM	69%	
Clc1ccccc1NCc1nc(-c2ccncc2)n[nH]1	1700 nM	100%	> 10000 nM
COc1cccc(CNC(=O)c2cccc(NCc3nnc(-c4ccncc4)[nH]3)c2)c1	20 nM	95%	3200 nM
Cn1c(CNc2cccc(C(=O)NCc3ccccc3Cl)c2)nnc1-c1ccncc1	1600 nM	54%	8700 nM
Clc1ccc(NCc2nc(-c3ccncc3)n[nH]2)cc1	94 nM	97%	> 10000 nM
Cc1cnccc1-c1n[nH]c(CNc2cccc(C(=O)NCc3ccccc3)c2)n1	94 nM	88%	> 10000 nM
COc1cccc(NCc2nc(-c3ccncc3)n[nH]2)c1	720 nM	92%	> 10000 nM
CCOc1cccc(NCC(=O)N/N=C2\CCCc3cnccc32)c1	5700 nM		> 10000 nM
Clc1ccc(NCCc2nc(-c3ccncc3)n[nH]2)cc1	900 nM	93%	
CN(Cc1ccccc1)C(=O)c1cccc(NCc2nc(-c3ccncc3)n[nH]2)c1	2200 nM	79%	> 10000 nM
c1ccc(CSc2cccc(NCc3nc(-c4ccncc4)n[nH]3)c2)cc1	1200 nM	100%	> 10000 nM
c1ccc(CCOc2cccc(NCc3nc(-c4ccncc4)n[nH]3)c2)cc1	2700 nM	96%	> 10000 nM
CNc1cc(-c2nnc(CNc3cccc(C(=O)NCc4c(F)cccc4F)c3)n2C)ccn1	7400 nM	29%	
O=C(NCc1ccccc1)c1cccc(NCc2nc(-c3ccncc3)c[nH]2)c1	7.3 nM	100%	3600 nM
CC(=O)Nc1cc(-c2nnc(CNc3cccc(C(=O)NCc4ccccc4C(F)(F)F)c3)n2C)ccn1	> 10000 nM	56%	
Clc1ccc(CNc2nc(-c3ccncc3)n[nH]2)cc1	270 nM	96%	
O=C(CNc1cccc(OCc2ccccc2)c1)N/N=C1\CCCc2cnccc21	> 10000 nM		> 10000 nM
CC(=O)Nc1cc(NCc2nc(-c3ccncc3)n[nH]2)ccc1Cl	74 nM	80%	8300 nM
O=C(NCc1ccccc1)c1cccc(NCc2csc(-c3ccncc3)n2)c1	120 nM	87%	> 10000 nM

Compound	IC50 [1]	inhibition at 10 µM (CYP3A4)	IC50 [2]
NS(=O)(=O)c1cccc(NCc2nc(-c3ccncc3)n[nH]2)c1	160 nM	25%	> 10000 nM
O=C(NCc1c(F)cccc1F)c1cccc(NCc2nnc3n2CCOc2cnccc2-3)c1	190 nM	49%	
c1ccc(Oc2cccc(NCc3nc(-c4ccncc4)n[nH]3)c2)cc1	> 10000 nM	100%	> 10000 nM
O=C(NCCCc1ccccc1)c1cccc(NCc2nc(-c3ccncc3)n[nH]2)c1	100 nM	94%	> 10000 nM
O=S(=O)(Cc1ccccc1)c1cccc(NCc2nc(-c3ccncc3)n[nH]2)c1	1100 nM	86%	
COc1ccccc1CNC(=O)c1cccc(NCc2nnc(-c3ccncc3)n2C)c1	1600 nM	60%	> 10000 nM
O=C(Nc1ccccc1)c1cccc(NCc2nc(-c3ccncc3)n[nH]2)c1	31 nM	94%	680 nM
COc1ccccc1NCc1nc(-c2ccncc2)n[nH]1	1800 nM	93%	> 10000 nM
O=C(NCc1ccccc1Cl)c1cccc(NCc2nnc(-c3ccncc3)[nH]2)c1	50 nM	97%	1100 nM
O=C(NCc1ccccc1)c1cccc(NCc2ccn(-c3ccncc3)c2)c1	340 nM	95%	
OCCc1cnccc1-c1n[nH]c(CNc2ccc(Cl)cc2)n1	> 10000 nM	100%	
O=C(NCc1ccccc1)c1cccc(NCc2c[nH]c(-c3ccncc3)n2)c1	160 nM	93%	
O=C(NCc1ccccc1)c1cccc(NCc2nc(-c3ccncc3)no2)c1	350 nM	86%	> 10000 nM
COc1cccc(NCC(=O)N/N=C2\CCCc3cnccc32)c1	390 nM		> 10000 nM
O=C(CNc1cccc(C(=O)NCc2ccccc2)c1)N/N=C1\CCCc2cnccc21	58 nM		> 10000 nM
COc1ccc(NCc2nc(-c3ccncc3)n[nH]2)cc1	280 nM	95%	> 10000 nM
O=C(NCc1ccccc1)Nc1cccc(NCc2nc(-c3ccncc3)n[nH]2)c1	30 nM	92%	2700 nM
COc1ccc(CNC(=O)c2cccc(NCc3nnc(-c4ccncc4)[nH]3)c2)cc1	27 nM	91%	7100 nM
c1ccc(CNCc2nc(-c3ccncc3)n[nH]2)cc1	5100 nM	74%	
O=C(CNc1cccc(Oc2ccccc2)c1)N/N=C1\CCCc2cnccc21	6200 nM		> 10000 nM
CC(=O)Nc1cccc(NCc2nc(-c3ccncc3)n[nH]2)c1	70 nM	77%	
O=C(NCc1ccccc1)c1cccc(NCc2cc(-c3ccncc3)n[nH]2)c1	60 nM	99%	7200 nM
Cn1c(CNc2cccc(C(=O)NCc3c(F)cccc3F)c2)nnc1-c1ccnc(NCCCc2ccccc2)c1	> 10000 nM	64%	2500 nM
O=C(NCc1ccccc1)c1cccc(NCc2cc(-c3ccncc3)on2)c1	18 nM	84%	2500 nM
NC(=O)OCc1cnccc1-c1n[nH]c(CNc2cccc(C(=O)NCc3ccccc3)c2)n1	2300 nM	63%	

Compound	IC50 [1]	inhibition at 10 µM (CYP3A4)	IC50 [2]
Cc1cc(-c2n[nH]c(CNc3ccc(Cl)cc3)n2)ccn1	7100 nM	47%	> 10000 nM
c1ccc(NCc2nc(-c3ccncc3)n[nH]2)cc1	630 nM	94%	> 10000 nM
O=S(=O)(NCc1ccccc1)c1cccc(NCc2nc(-c3ccncc3)n[nH]2)c1	98 nM	83%	
O=C(NCc1ccccc1)c1cccc(NCc2nnc(-c3ccncc3)n2Cc2ccccc2)c1	3200 nM	87%	
O=C(CNc1cccc(C(=O)N2CCOCC2)c1)N/N=C1\CCCc2cnccc21	> 10000 nM		
O=C(Cc1ccccc1)Nc1cc(NCc2nc(-c3ccncc3)n[nH]2)ccc1Cl	18 nM	90%	1700 nM
c1ccc(COc2cccc(NCc3nc(-c4ccncc4)n[nH]3)c2)cc1	1400 nM	97%	> 10000 nM
Clc1cccc(NCc2nc(-c3ccncc3)n[nH]2)c1	380 nM	93%	> 10000 nM
COc1ccccc1CNC(=O)c1cccc(NCc2nnc(-c3ccncc3)[nH]2)c1	85 nM	95%	3300 nM
Cn1c(CNc2cccc(C(=O)NCc3c(F)cccc3F)c2)nnc1-c1ccnc(NCc2ccccc2)c1	> 10000 nM	47%	> 10000 nM
O=C(NCc1ccccc1)c1cccc(NCc2nnc(-c3ccncc3)o2)c1	320 nM	43%	> 10000 nM
O=C(NCc1ccccc1)c1cccc(NCc2nc(-c3ccncc3CO)n[nH]2)c1	540 nM	100%	> 10000 nM
Clc1ccc(CSc2nc(-c3ccncc3)n[nH]2)cc1	1900 nM	97%	
O=C(NCc1ccccc1)c1cccc(NCc2[nH]nc(-c3ccncc3)c2-c2ccccc2)c1	170 nM	87%	
O=C(NCc1ccccc1)c1cccc(NCc2nc(-c3ccncc3)cs2)c1	22 nM	92%	> 10000 nM
O=C(CNc1ccccc1)N/N=C1\CCCc2cnccc21	1800 nM		
Clc1ccc(SCc2nc(-c3ccncc3)n[nH]2)cc1	590 nM	100%	
O=C(Cc1cccc(NCc2nc(-c3ccncc3)n[nH]2)c1)NCc1ccccc1	480 nM	92%	> 10000 nM
NS(=O)(=O)c1ccc(NCc2nc(-c3ccncc3)n[nH]2)cc1	360 nM	20%	> 10000 nM
COc1ccc(NCC(=O)N/N=C/c2ccncc2)cc1	3700 nM		
O=C(Nc1nc(-c2ccncc2)n[nH]1)c1ccc(Cl)cc1	> 10000 nM	27%	
O=C(NCCc1ccccc1)c1cccc(NCc2nc(-c3ccncc3)n[nH]2)c1	47 nM	95%	> 10000 nM
O=C(CNc1ccccc1Cl)N/N=C/c1ccncc1	2600 nM		
O=C(NCc1ccccc1)c1cccc(NCc2cc(-c3ccncc3)c[nH]2)c1	52 nM	100%	> 10000 nM
O=C(NCc1ccccc1)c1cccc(NCc2cc(-c3ccncc3)no2)c1	130 nM	92%	8300 nM
